From patent US7288659B2, “Acylaminothiazole derivatives, their preparation and therapeutic use” (Sanofi-Aventis, priority 2001, dated 2007) come the findings set out here.

For `CC(C)C[C@H](NC(=O)Cc1cc(F)cc(F)c1)C(=O)Nc1ncc(-c2ccccc2COC2CCCCC2)s1` [compound 36, (2S)-N-(5-{2-[(cyclohexyloxy)methyl]phenyl}-1,3-thiazol-2-yl)-2-{[2-(3,5-difluorophenyl)acetyl]amino}-4-methylpentanamide], the melting point amounted to 67 °C.

Consider `CC(C)COCc1ccccc1-c1cnc(NC(=O)C(C)NC(=O)Cc2cc(F)cc(F)c2)s1` (stereo not drawn) [compound 4, 2-{[2-(3,5-difluorophenyl)acetyl]amino}-N-{5-[2-(isobutoxymethyl)phenyl]-1,3-thiazol-2-yl}propanamide], for which the melting point was 181 °C.

With `C[C@H](NC(=O)[C@@H](O)c1cc(F)cc(F)c1)C(=O)Nc1ncc(-c2ccccc2COC2CCCCC2)s1` [Compound No. 51, (2S)-N-(5-{2-[(cyclohexyloxy)methyl]phenyl}-1,3-thiazol-2-yl)-2-{[(2S)-2-(3,5-difluorophenyl)-2-hydroxyacetyl]amino}propanamide], the melting point is 159 °C.

Take `C[C@H](NC(=O)Cc1cc(F)cc(F)c1)C(=O)Nc1ncc(-c2ccccc2CSC2CCCCC2)s1` [compound 54, (2S)-N-(5-{2-[(cyclohexylsulfanyl)methyl]phenyl}-1,3-thiazol-2-yl)-2-{[2-(3,5-difluorophenyl)acetyl]-amino}propanamide]: the melting point was found to be 91.6 °C.

Consider `CCCC[C@H](NC(=O)Cc1cc(F)cc(F)c1)C(=O)Nc1ncc(-c2ccccc2COC2CCCCC2)s1` [compound 47, (2S)-N-(5-{2-[(cyclohexyloxy)methyl]phenyl}-1,3-thiazol-2-yl)-2-{[2-(3,5-difluorophenyl)acetyl]amino}-hexanamide], for which the melting point is 77.6 °C.

`CCC[C@H](NC(=O)Cc1cc(F)cc(F)c1)C(=O)Nc1nc(C)c(-c2ccccc2COC(C)C)s1` [compound 71, (2S)-2-{[2-(3,5-difluorophenyl)acetyl]amino}-N-{5-[2-(isopropoxymethyl)phenyl]-4-methyl-1,3-thiazol-2-yl}pentanamide] showed a melting point of 66.6 °C.

With `CCC[C@H](NC(=O)[C@@H](O)c1cc(F)cc(F)c1)C(=O)Nc1nc(C)c(-c2ccccc2COC2CCCCC2)s1` [compound 57, (2S)-N-(5-{2-[(cyclohexyloxy)methyl]phenyl}-4-methyl-1,3-thiazol-2-yl)-2-{[(2S)-2-(3,5-difluorophenyl)-2-hydroxyacetyl]amino}pentanamide], the melting point was 115 °C.

`C[C@H](NC(=O)[C@@H](F)c1cc(F)cc(F)c1)C(=O)Nc1ncc(-c2ccccc2COC2CCCCC2)s1` [Compound No. 66, (2S)-N-(5-{2-[(cyclohexyloxy)methyl]phenyl}-1,3-thiazol-2-yl)-2-{[(2S)-2-(3,5-difluorophenyl)-2-fluoroacetyl]amino}propanamide] gave a melting point of 158 °C.

Take `CC(NC(=O)Cc1cc(F)cc(F)c1)C(=O)Nc1ncc(-c2ccccc2COCC2CCCCC2)s1` (stereo not drawn) [compound 8, N-(5-{2-[(cyclohexylmethoxy)methyl]phenyl}-1,3-thiazol-2-yl)-2-{[2-(3,5-difluorophenyl)acetyl]amino}-propanamide]: the melting point stood at 143 °C.

Molecule `C[C@H](NC(=O)Cc1cccc(F)c1)C(=O)Nc1ncc(-c2ccccc2COC2CCCCC2)s1` [compound 19, (2S)-N-(5-{2-[(cyclohexyloxy)methyl]phenyl}-1,3-thiazol-2-yl)-2-{[2-(3-fluorophenyl)acetyl]amino}-propanamide] came in with a melting point of 98 °C.

`CCC[C@H](NC(=O)Cc1cc(F)cc(F)c1)C(=O)Nc1nc(CC)c(-c2ccccc2COC2CCCCC2)s1` [compound 59, (2S)-N-(5-{2-[(cyclohexyloxy)methyl]phenyl}-4-ethyl-1,3-thiazol-2-yl)-2-{[2-(3,5-difluorophenyl)-acetyl]amino}pentanamide] displayed a melting point of 80 °C.

Take `CCC[C@H](NC(=O)Cc1cc(F)cc(F)c1)C(=O)Nc1ncc(-c2ccccc2COC2CCCCC2)s1` [compound 42, (2S)-N-(5-{2-[(cyclohexyloxy)methyl]phenyl}-1,3-thiazol-2-yl)-2-{[2-(3,5-difluorophenyl)acetyl]amino}-pentanamide]: the melting point amounted to 134 °C.

Regarding `COCc1ccccc1-c1cnc(NC(=O)C(C)NC(=O)Cc2cc(F)cc(F)c2)s1` (stereo not drawn) [compound 13, 2-{[2-(3,5-difluorophenyl)acetyl]amino}-N-{5-[2-(methoxymethyl)phenyl]-1,3-thiazol-2-yl}propanamide], the melting point was 194 °C.

For `C[C@H](NC(=O)Cc1ccc(F)cc1)C(=O)Nc1ncc(-c2ccccc2COC2CCCCC2)s1` [compound 20, (2S)-N-(5-{2-[(cyclohexyloxy)methyl]phenyl}-1,3-thiazol-2-yl)-2-{[2-(4-fluorophenyl)acetyl]amino}-propanamide], the melting point was found to be 70 °C.

With `CCC[C@H](NC(=O)[C@H](O)c1cc(F)cc(F)c1)C(=O)Nc1nc(C)c(-c2ccccc2COC2CCCCC2)s1` [compound 53, (2S)-N-(5-{2-[(cyclohexyloxy)methyl]phenyl}-4-methyl-1,3-thiazol-2-yl)-2-{[(2R)-2-(3,5-difluorophenyl)-2-hydroxyacetyl]amino}pentanamide], the melting point is 99.4 °C.

In turn, `Cc1nc(NC(=O)C(C)NC(=O)Cc2cc(F)cc(F)c2)sc1-c1ccccc1COC1CCCCC1` (stereo not drawn) [compound 12, N-(5-{2-[(cyclohexyloxy)methyl]phenyl}-4-methyl-1,3-thiazol-2-yl)-2-{[2-(3,5-difluorophenyl)acetyl]-amino}propanamide] returned a melting point of 152 °C.

As for `CCc1nc(NC(=O)[C@H](C)NC(=O)Cc2cc(F)cc(F)c2)sc1-c1ccccc1COC1CCCCC1` [compound 62, (2S)-N-(5-{2-[(cyclohexyloxy)methyl]phenyl}-4-ethyl-1,3-thiazol-2-yl)-2-{[2-(3,5-difluorophenyl)-acetyl]amino}propanamide], the melting point is 70 °C.

The molecule `CC(NC(=O)Cc1cc(F)cc(F)c1)C(=O)Nc1ncc(-c2ccccc2COCc2ccccc2)s1` (stereo not drawn) [Compound No. 6, N-(5-{2-[(benzyloxy)methyl]phenyl}-1,3-thiazol-2-yl)-2-{[2-(3,5-difluorophenyl)acetyl]amino}propanamide] returned a melting point of 147 °C.

`CCC(NC(=O)Cc1cc(F)cc(F)c1)C(=O)Nc1ncc(-c2ccccc2COC2CCCCC2)s1` (stereo not drawn) [compound 9, N-(5-{2-[(cyclohexyloxy)methyl]phenyl}-1,3-thiazol-2-yl}-2-{[2-(3,5-difluorophenyl)acetyl]amino}butanamide] yielded a melting point of 179 °C.

With `CCC[C@H](NC(=O)Cc1cc(F)cc(F)c1)C(=O)Nc1ncc(-c2ccc(OC)cc2COC(C)C)s1` [Compound No. 75, (2S)-2-{[2-(3,5-difluorophenyl)acetyl]amino}-N-(5-{2-(isopropoxymethyl)-4-methoxyphenyl}-1,3-thiazol-2-yl)pentanamide], the melting point stood at 73.9 °C.

As for `CC(C)OCc1cccc(-c2cnc(NC(=O)[C@H](C)NC(=O)Cc3cc(F)cc(F)c3)s2)c1` [compound 45, (2S)-2-{[2-(3,5-difluorophenyl)acetyl]amino}-N-(5-{3-(isopropoxymethyl)phenyl}-1,3-thiazol-2-yl)propanamide], the melting point was 136 °C.

Molecule `CC[C@H](NC(=O)Cc1cc(F)cc(F)c1)C(=O)Nc1nc(C)c(-c2ccccc2COC(C)C)s1` [compound 69, (2S)-2-{[2-(3,5-difluorophenyl)acetyl]amino}-N-{5-[2-(isopropoxymethyl)phenyl]-4-methyl-1,3-thiazol-2-yl}butanamide] displayed a melting point of 79 °C.

`Cc1nc(NC(=O)[C@H](C)NC(=O)Cc2cc(F)cc(F)c2)sc1-c1ccccc1COC(C)C` [compound 27, (2S)-2-{[2-(3,5-difluorophenyl)acetyl]amino}-N-{5-[2-(isopropoxymethyl)phenyl]-4-methyl-1,3-thiazol-2-yl}propanamide] returned a melting point of 74 °C.

For the molecule `CCC[C@H](NC(=O)C(F)c1cc(F)cc(F)c1)C(=O)Nc1ncc(-c2ccccc2COC2CCCCC2)s1` (stereo partly drawn) [compound 64, (2S)-N-(5-{2-[(cyclohexyloxy)methyl]phenyl}-1,3-thiazol-2-yl)-2-{[2-(3,5-difluorophenyl)-2-fluoroacetyl]amino}pentanamide], the melting point is 139 °C.

As to `CC[C@H](NC(=O)Cc1cc(F)cc(F)c1)C(=O)Nc1ncc(-c2ccccc2COC(C)C)s1` [compound 70, (2S)-2-{[2-(3,5-difluorophenyl)acetyl]amino}-N-{5-[2-(isopropoxymethyl)phenyl]-1,3-thiazol-2-yl}butanamide], the melting point amounted to 73 °C.

With `Cc1nc(NC(=O)C(C)NC(=O)Cc2cc(F)cc(F)c2)sc1-c1ccccc1COC1CCCC1` (stereo not drawn) [compound 14, N-(5-{2-[(cyclopentyloxy)methyl]phenyl}-4-methyl-1,3-thiazol-2-yl)-2-{[2-(3,5-difluorophenyl)acetyl]-amino}propanamide], the melting point came to 104 °C.

`CC(NC(=O)Cc1cc(F)cc(F)c1)C(=O)Nc1ncc(-c2ccccc2COC2CCCCC2)s1` (stereo not drawn) [Compound No. 2, N-(5-{2-[(cyclohexyloxy)methyl]phenyl}-1,3-thiazol-2-yl)-2-{[2-(3,5-difluorophenyl)acetyl]amino}propanamide] gave a melting point of 126 °C.

Take `CCC[C@H](NC(=O)C(F)c1cc(F)cc(F)c1)C(=O)Nc1ncc(-c2ccccc2COC2CCCCC2)s1` (stereo partly drawn) [compound 67, (2S)-N-(5-{2-[(cyclohexyloxy)methyl]phenyl}-1,3-thiazol-2-yl)-2-{[2-(3,5-difluorophenyl)-2-fluoroacetyl]amino}pentanamide]: the melting point was 91 °C.

As to `C[C@H](NC(=O)Cc1cc(F)cc(F)c1)C(=O)Nc1ncc(-c2cccc(COCC3CCCCC3)c2)s1` [compound 43, (2S)-N-(5-{3-[(cyclohexylmethoxy)methyl]phenyl}-1,3-thiazol-2-yl)-2-{[2-(3,5-difluorophenyl)acetyl]amino}propanamide], the melting point stood at 144 °C.

Consider `CCC[C@H](NC(=O)C(C)c1cc(F)cc(F)c1)C(=O)Nc1ncc(-c2ccccc2COC2CCCCC2)s1` (stereo partly drawn) [Compound No. 58, (2S)-N-(5-{2-[(cyclohexyloxy)methyl]phenyl}-1,3-thiazol-2-yl)-2-{[2-(3,5-difluorophenyl)propanoyl]-amino}pentanamide], for which the melting point was 88 °C.
